Data set [1] concerns post-irradiated tumors. Particulars: cited from earlier work.
The subject of data set [2] is haematological malignancies. The conditions noted are these: cited from earlier work.
The test system of data set [3] is CCL3, CCL4, and CXCL13. Particulars: CLL; cited from earlier work.
The nature of data set [4]: Human pharmacokinetic prediction based on non-human animal studies. How it is done:
Based on non-human animal studies, a predicted human dose to achieve exposure at the IC90 for PI3K-γ is approximately 2 mg. […] In some embodiments, the dose (e.g., a therapeutically effective dose) is about 2 mg, 1-3 mg, 1-5 mg, 1-10 mg, 0.5-20 mg, 0.1-50 mg, 0.1-75 mg, 0.5-75 mg, 1-75 mg, 0.1-100 mg, 0.5-100 mg, or 1-100 mg. In some embodiments, the dose is about 1-10 mg. In some embodiments, the dose is about 1-50 mg. In some embodiments, the dose is about 1-100 mg. In a 70 kg human, a 2 mg dose corresponds to 0.029 mg/kg.

For data set [5], the target named is PI3K α (Homo sapiens (Human), UniProt P42336). As to the kind of experiment: PI3-Kinase Promega ADP-Glo Max assay. Type of data set: biochemical. On the technique in general: ADP-Glo first removes unused ATP, then detects ADP through luciferase.
Protocol: (§3) Promega ADP-Glo Max assay kit (Cat. No. V7002) was utilized to determine IC50 values for α, β, δ and γ isoforms of human Class I PI3 kinases (Millipore). […] Reactions were incubated at room temperature for 2 hours followed by addition of 25 uL of stop solution. After a 40-minute incubation at room temperature, 50 uL of Promega detection mix was added followed by incubation for 1 hour at room temperature. Plates were then read on Envision plate reader in lunimescence mode. Data was converted to % inhibition using the following equation below:
(§4) [formula] where S is the sample luminescence, Pos is a positive control without added PI3K, Neg is the negative control without added compound. Data was then plotted as % inhibition vs compound concentration.
For data set [6], the target named is PI3K β (Homo sapiens (Human), UniProt P42338). Nature of the data set: PI3-Kinase Promega ADP-Glo Max assay. Type of data set: biochemical.
Protocol: as §3, §4
The target of data set [7] is PI3K δ (Homo sapiens (Human), UniProt O00329). Nature of the data set: PI3-Kinase Promega ADP-Glo Max assay. Type of data set: biochemical.
Chain of PI3K δ (O00329 whole entry): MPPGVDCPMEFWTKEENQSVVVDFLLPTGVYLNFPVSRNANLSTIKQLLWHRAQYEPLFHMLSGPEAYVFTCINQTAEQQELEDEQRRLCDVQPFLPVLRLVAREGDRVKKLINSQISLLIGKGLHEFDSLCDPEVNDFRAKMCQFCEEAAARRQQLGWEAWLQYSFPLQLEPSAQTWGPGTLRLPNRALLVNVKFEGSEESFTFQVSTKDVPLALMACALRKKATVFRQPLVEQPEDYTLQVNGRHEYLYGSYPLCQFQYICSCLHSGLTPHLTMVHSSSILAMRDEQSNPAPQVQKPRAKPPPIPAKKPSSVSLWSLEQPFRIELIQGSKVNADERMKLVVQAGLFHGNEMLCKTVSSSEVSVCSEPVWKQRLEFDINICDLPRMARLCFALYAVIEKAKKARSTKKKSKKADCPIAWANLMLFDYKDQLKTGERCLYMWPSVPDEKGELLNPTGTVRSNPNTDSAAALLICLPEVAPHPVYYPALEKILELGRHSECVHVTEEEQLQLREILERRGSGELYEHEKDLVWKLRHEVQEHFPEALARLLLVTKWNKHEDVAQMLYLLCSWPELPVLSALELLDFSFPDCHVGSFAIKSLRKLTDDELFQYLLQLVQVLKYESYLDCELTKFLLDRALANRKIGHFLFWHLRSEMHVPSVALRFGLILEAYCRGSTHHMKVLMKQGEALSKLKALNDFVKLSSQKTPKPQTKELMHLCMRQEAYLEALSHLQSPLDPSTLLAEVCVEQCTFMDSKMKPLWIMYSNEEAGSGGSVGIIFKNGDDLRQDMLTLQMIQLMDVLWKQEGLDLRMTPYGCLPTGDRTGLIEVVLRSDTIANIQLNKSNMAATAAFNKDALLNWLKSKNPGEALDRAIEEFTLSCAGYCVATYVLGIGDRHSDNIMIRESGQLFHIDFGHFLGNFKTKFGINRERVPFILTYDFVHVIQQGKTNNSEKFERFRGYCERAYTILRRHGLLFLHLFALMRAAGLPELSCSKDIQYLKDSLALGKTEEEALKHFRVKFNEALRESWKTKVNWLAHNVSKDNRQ
Chain of PI3K δ (P27986 whole entry partner): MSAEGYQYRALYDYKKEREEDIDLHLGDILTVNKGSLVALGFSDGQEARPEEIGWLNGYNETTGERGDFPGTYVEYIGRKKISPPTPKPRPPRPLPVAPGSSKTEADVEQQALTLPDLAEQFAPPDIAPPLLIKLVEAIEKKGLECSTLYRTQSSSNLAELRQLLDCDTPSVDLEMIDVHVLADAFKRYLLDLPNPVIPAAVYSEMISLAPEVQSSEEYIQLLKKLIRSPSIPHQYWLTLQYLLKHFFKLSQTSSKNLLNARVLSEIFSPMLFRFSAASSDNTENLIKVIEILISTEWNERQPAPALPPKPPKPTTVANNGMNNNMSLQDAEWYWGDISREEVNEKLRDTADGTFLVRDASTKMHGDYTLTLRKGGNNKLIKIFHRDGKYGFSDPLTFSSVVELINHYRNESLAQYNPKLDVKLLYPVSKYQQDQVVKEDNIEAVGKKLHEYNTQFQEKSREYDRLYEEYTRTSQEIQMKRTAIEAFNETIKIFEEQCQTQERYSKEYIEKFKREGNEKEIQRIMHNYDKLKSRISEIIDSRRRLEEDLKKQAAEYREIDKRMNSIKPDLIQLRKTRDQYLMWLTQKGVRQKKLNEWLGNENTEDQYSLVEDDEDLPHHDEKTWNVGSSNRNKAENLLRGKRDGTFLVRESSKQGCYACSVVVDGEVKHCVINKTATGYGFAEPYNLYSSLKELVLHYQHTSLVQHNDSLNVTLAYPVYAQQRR
Protocol: as §3, §4
The target in data set [8] is PI3K γ (Homo sapiens (Human), UniProt P48736). Nature of the data set: PI3-Kinase Promega ADP-Glo Max assay. The format is biochemical.
Chain of PI3K γ (P48736 whole entry): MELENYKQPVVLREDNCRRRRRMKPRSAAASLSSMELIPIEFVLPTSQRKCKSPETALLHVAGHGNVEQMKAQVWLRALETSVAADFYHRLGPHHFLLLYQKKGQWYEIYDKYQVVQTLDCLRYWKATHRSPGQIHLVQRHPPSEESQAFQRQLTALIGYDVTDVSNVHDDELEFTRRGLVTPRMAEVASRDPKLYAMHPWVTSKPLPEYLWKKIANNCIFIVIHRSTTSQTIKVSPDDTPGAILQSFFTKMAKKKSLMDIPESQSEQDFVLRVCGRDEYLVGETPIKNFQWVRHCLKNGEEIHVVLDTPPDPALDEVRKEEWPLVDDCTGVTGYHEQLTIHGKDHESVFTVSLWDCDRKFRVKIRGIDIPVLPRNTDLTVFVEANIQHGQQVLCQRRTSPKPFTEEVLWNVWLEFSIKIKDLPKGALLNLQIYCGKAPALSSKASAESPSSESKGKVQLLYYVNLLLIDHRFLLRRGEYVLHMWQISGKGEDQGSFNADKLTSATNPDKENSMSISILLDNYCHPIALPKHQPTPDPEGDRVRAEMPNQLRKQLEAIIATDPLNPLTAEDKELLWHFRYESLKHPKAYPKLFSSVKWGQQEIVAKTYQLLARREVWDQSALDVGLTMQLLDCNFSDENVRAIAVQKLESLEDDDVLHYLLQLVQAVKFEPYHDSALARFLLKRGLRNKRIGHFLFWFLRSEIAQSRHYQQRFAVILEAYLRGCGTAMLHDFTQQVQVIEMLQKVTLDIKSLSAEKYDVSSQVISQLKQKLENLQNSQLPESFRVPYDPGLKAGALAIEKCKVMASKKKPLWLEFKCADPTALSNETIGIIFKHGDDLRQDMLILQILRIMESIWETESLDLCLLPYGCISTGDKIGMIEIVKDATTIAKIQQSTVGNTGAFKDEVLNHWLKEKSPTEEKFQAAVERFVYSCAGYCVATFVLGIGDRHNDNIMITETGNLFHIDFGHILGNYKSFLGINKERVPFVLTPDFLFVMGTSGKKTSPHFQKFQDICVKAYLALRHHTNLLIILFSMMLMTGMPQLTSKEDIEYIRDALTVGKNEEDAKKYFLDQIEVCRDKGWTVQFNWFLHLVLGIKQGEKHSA
Protocol: as §3, §4
For data set [9], the target named is PI3K-δ in RAJI cells (Homo sapiens (Human), UniProt O00329). As to the kind of experiment: RAJI p110 δ assay (PI3K-δ selective cellular assay, phospho-AKT). The format is cell-based.
Chain of PI3K-δ in RAJI cells (O00329 whole entry): as the sequence (O00329 whole entry) above
Chain of PI3K-δ in RAJI cells (P27986 whole entry partner): as the sequence (P27986 whole entry partner) above
In data set [10] the target is PI3K-γ in RAW264.7 macrophages (Mus musculus (Mouse), UniProt Q9JHG7). Nature of the data set: Raw264.7 p110 γ assay (PI3K-γ selective cellular assay, C5a-stimulated phospho-AKT). Type of data set: cell-based.
Chain of PI3K-γ in RAW264.7 macrophages (Q9JHG7 whole entry): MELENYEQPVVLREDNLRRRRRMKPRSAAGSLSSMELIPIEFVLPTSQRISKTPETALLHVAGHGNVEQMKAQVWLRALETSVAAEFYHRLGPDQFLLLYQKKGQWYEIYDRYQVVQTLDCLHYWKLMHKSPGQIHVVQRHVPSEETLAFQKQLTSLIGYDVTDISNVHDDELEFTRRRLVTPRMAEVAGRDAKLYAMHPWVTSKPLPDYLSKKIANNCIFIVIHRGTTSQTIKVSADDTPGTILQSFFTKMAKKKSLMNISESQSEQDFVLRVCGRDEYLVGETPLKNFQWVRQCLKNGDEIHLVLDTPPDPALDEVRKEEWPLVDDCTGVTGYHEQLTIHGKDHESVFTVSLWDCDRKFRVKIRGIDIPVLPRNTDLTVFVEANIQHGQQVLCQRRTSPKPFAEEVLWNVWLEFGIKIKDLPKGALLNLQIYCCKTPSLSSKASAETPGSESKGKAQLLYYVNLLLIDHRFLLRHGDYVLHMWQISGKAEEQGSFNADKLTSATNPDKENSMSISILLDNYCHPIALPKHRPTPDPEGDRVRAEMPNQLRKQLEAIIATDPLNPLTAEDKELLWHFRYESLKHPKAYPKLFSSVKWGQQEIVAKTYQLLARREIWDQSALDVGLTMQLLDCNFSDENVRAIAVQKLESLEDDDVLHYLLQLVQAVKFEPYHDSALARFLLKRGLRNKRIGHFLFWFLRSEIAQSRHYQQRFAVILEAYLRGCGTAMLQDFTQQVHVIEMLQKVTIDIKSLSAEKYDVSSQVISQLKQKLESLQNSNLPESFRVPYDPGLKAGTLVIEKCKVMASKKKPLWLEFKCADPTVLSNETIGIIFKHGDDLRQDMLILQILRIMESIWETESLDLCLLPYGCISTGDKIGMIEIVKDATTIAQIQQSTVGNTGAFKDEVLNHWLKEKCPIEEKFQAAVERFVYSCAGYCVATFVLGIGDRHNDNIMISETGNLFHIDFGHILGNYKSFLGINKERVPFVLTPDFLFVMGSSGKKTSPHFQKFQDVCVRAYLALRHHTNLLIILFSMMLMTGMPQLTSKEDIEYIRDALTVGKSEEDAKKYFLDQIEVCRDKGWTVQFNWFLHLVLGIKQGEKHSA
Description: Briefly, serum-starved RAW264.7 cells are stimulated with a known GPCR agonist C5a. […] Cells can be treated with test compounds prior to, simultaneously with, or subsequent to the stimulation by C5a. RAW 264.7 cells respond to the complement component fragment C5a through activation of the C5a receptor, and the C5a receptor activates macrophages and induces cell migration.
Data set [11] is described as follows: Mouse pharmacokinetics, oral single and repeat dose. The format is in vivo. Particulars: for tlast / AUC(0-t) / Cmax / Tmax / AUC(0-inf) / half-life: female C57 mice; for AUC(0-t): female, C57, mouse, po; for AUC(0-t) / Cmax / Tmax / AUC(0-inf) / half-life: plasma; for Cmax / Tmax / AUC(0-inf) / half-life: mouse. How it is done: Animals were weighed daily prior to dosing. […] On subsequent dosing days, the animals' condition was noted prior to dosing; the animals were observed within 4 hours of dosing, and at the end of the day.
Samples were collected at pre-dose 0.25, 0.5, 1, 2, 4, 6 and 24 h following the first dose on day 1 and pre-dose (trough), 0.25, 0.5, 1, 2, 4, 6 and 24 h following the final dose on day 3 Animals received a single oral dose daily for 3 consecutive days. Blood was collected by retro-orbital bleeding for all time points on day 1. All other blood sampling was collected by a cardiac puncture. Blood was collected into K2EDTA tubes and placed on wet ice. Within 15 min of collection, the sample was centrifuged at 10,000 rpm at 4° C. for 10 min in a bench top centrifuge and the plasma transferred to a new microcentrifuge tube.
A similar study was carried out using Compound 88. […] Below is a table that details the results for Compound 88: […]

Data set [12] concerns human T cells. As to the kind of experiment: Concanavalin A-induced model for activation of human T cells (IFN-γ). Type of data set: cell-based.
Data set [13] has as its target PI3K-α in SKOV-3 cells (Homo sapiens (Human), UniProt P42336, H1047R). As to the kind of experiment: PI3K-α selective cellular assay (phospho-AKT). The format is cell-based.
In data set [14] the target is PI3K-β in 786-O cells (Homo sapiens (Human), UniProt P42338). As to the kind of experiment: PI3K-β selective cellular assay (phospho-AKT). Type of data set: cell-based.
Data set [15] has as its system LPS induced neutrophil influx in bronchoalveolar lavage fluid. Nature of the data set: LPS-induced neutrophilia, oral administration. The format is in vivo. The conditions noted are these: rat, p.o., 4 hours post-LPS challenge, dose dependent. How it is done: (§1) This study also includes assessment of the exposure to the compounds in plasma and lung tissues.
(§2) Ref C is budesonide p.o. The compound was administered p.o. and about 1 hour later, LPS was administered intra-tracheally and plasma was collected. After about 5 hours, plasma and bronchoalveolar lavage samples were collected.

Data set [16] is described as follows: Oral PK in the rat LPS studies (free plasma concentration). The format is in vivo. The conditions noted are these: for concentration at 1.5 h / concentration at […]: plasma, po, read-out: Free Plasma Conc; for concentration at […]: 5.5h. How it is done: as §1, §2
Data set [17] has as its system CXCL12 induced p-AKT in polarized bone marrow derived macrophages. As to the kind of experiment: CXCL12-induced p-AKT induction assay in differentiated macrophages. The format is cell-based, mouse. From the text: Macrophage Differentiation and Polarization: Long bones from young C57B6 mice were harvested and bone marrow was extruded by gentle lavage of the bone marrow cavities with a 28 gauge needle. Red blood cells were removed using red blood cell lysis buffer (Sigma). Bone marrow cells were differentiated to macrophages using MCSF for 6 days (RPMI and 20% FCS) with one media change (with removal of all non-adherent cells) at day 3. Macrophages were polarized into MO (MCSF), M1 (MCSF, IFNγ, and LPS for 1 day), or M2 (MCSF, IL4 for 2 days).
CXCL12-Induced p-AKT Induction Assay: Polarized macrophages were lifted with Acutase, and plated at 0.5M cells per well (0.5 ml) in a deep well (2 ml) non adherant plate in polarization media for 1 hour. […] CXCL12 was added, and the cells were mixed on a plate shaker for 2 minutes. 1 ml of 37 degree FACS Lyse/fix buffer (BD bioscience) was added and the plate was mixed for 1 minute. The plates were spun and decanted and frozen at −80° C. Phospho AKT staining with anti Phospho AKT 473 PERCP labeled (Cell Signaling Technologies) was performed and measured by flow cytometry. Total cell MFI was used to calculate the effect of tested compound on CXCL12 induction of phospho AKT.

Data set [18] deals with PI3K-delta (Homo sapiens (Human), UniProt O00329). The conditions noted are these: as described in Table 4 of WO2013/032591; cited from earlier work.
Chain of PI3K-delta (O00329 whole entry, species assumed, the tested form may be a part): as the sequence (O00329 whole entry) above
Chain of PI3K-delta (P27986 whole entry partner, species assumed, the tested form may be a part): as the sequence (P27986 whole entry partner) above
The subject of data set [19] is IL-8 induced neutrophil migration. As to the kind of experiment: IL-8 driven murine air pouch model. Particulars: mouse air pouch; BB 0.1-3 mg/kg, AA 10-50 mg/kg.
Data set [20] has as its system LLC tumor brei. As to the kind of experiment: LLC tumor brei model with or without cyclophosphamide (tumor growth, FACS). The format is in vivo, mouse. Particulars: Compound BB 15 mg/kg QD PO; cyclophosphamide 50 mg/kg EOD IP.
Protocol: In this experiment, treatment began when tumors reached approx. 150 mm^3—around day 12. Caliper and xenogen images were monitored. Treatment groups n=13-15/group. […] Samples for FACs analysis were collected on day 23 post implant. Using FACS, cells were assayed for the level of CD11b and Gr-1.
[21] abbreviates: phospho-AKT, read-out: RAJI p110 δ assay IC50.
Where [22] appears, read: phospho-AKT, read-out: Raw264.7 p110 γ assay IC50.

The IC50 is the concentration that gives 50% inhibition. Usually Cmax stands for the peak of the concentration-time curve. What is called Tmax is the time from dosing to the highest level. For orientation: AUC(0-inf) means the area under the concentration-time curve extrapolated to infinity. By half-life is commonly meant how long it takes for the measured level to halve.

Where two headings read alike, the source gives them in different places. A value given as a limit tells only on which side of the number the result lay.

In the case of `c1cc(CN2CCCNCCNCCCNCC2)ccc1CN1CCCNCCNCCCNCC1` [AMD3100], in data set [1], the “tumor vasculogenesis and tumor regrowth” value was “blocked tumor vasculogenesis and tumor regrowth”.

With `CC[C@H](Nc1ncnc2[nH]cnc12)c1nc2cccc(F)c2c(=O)n1-c1ccccc1` [CAL-101], the “lymph node and lymphocyte response in CLL patients” value in data set [2] (CLL patients) was “induces rapid lymph node reduction and redistribution of lymphocytes into the circulation”. Moreover, the “single agent clinical activity in lymphoma” value in data set [2] (mantle cell lymphoma and refractory non Hodgkin's lymphoma) was “active in mantle cell lymphoma”. Further, in data set [2] (phase 1 trial, patients with poor prognostic characteristics), the “clinical activity in CLL” value is “showed activity in CLL”. Besides, the “expression of stromal and T-cell derived factors including CCL3, CCL4, and CXCL13” value in [3] is on record as “suppresses the expression”.

Take `C[C@H](NC(=O)c1c(N)nn2cccnc12)c1cc2cccc(C#Cc3cnn(C)c3)c2c(=O)n1-c1ccccc1` [Compound 4]: the “predicted human dose to achieve exposure at the IC90 for PI3K-γ” value in data set [4] is given as “approximately 2 mg”.

Consider `Cc1c(C#Cc2cccc3nc([C@H](C)NC(=O)c4c(N)nn5cccnc45)n(-c4ccccc4)c(=O)c23)cnn1C` [Compound 88, (S)-2-amino-N-(1-(5-((1,5-dimethyl-1H-pyrazol-4-yl)ethynyl)-4-oxo-3-phenyl-3,4-dihydroquinazolin-2-yl)ethyl)pyrazolo[1,5-a]pyrimidine-3-carboxamide], for which the half-inhibitory concentration (IC50) was in the range of 5000 to 10000 nM in data set [5]; 5000 to 10000 nM in [6]; 5000 to 10000 nM in [7]; 100 to 500 nM in [8]; 100 to 500 nM in [9] (setting [21]); 1 to 50 nM in data set [10] (setting [22]). Further, the “PI3K δ/PI3K γ IC50 (selectivity)” value in data set [8] is “X (key: V = 0.1 to 1; W = >1 to <10; X = 10 to <50; Y = 50 to <850)”. Besides, in data set [10], the “RAJIδ/Raw264.7 γ IC50 (selectivity)” value is “Y (key: V = 0.1 to 1; W = >1 to <10; X = 10 to <50; Y = 50 to <850)”. In addition, the tlast in [11] (2 mg/kg PO NMP) is reported as 8 h; in [11] (7.5 mg/kg PO NMP), 24 h; in data set [11] (15 mg/kg PO NMP) it was 24 h. In data set [11] (female mice, 2, 7.5, 15 mg/kg PO), the “stability in serum (unbound plasma concentration time course)” value is “good stability in serum”. Moreover, the AUC(0-t) came out at 3890 ng·h/mL in data set [11] (2 mg/kg, 2 mg/kg PO NMP, read-out: AUC0-8); 3890 ng·h/mL in data set [11] (2 mg/kg, 2 mg/kg PO NMP, read-out: AUClast); 15800 ng·h/mL in data set [11] (7.5 mg/kg, 7.5 mg/kg PO NMP, read-out: AUC0-8); 20600 ng·h/mL in data set [11] (7.5 mg/kg, 7.5 mg/kg PO NMP, read-out: AUClast); 34600 ng·h/mL in [11] (15 mg/kg, 15 mg/kg PO NMP, read-out: AUC0-8); 71700 ng·h/mL in data set [11] (15 mg/kg, 15 mg/kg PO NMP, read-out: AUClast). The figures for the Cmax in data set [11] (2 mg/kg PO NMP), in [11] (7.5 mg/kg PO NMP) and in data set [11] (15 mg/kg PO NMP) were 654 ng/mL, 3700 ng/mL and 5700 ng/mL, respectively. Also, the Tmax in [11] (2 mg/kg PO NMP) stood at 2 h; in data set [11] (7.5 mg/kg PO NMP) it was 1 h; in [11] (15 mg/kg PO NMP), 1 h. Besides, the total exposure AUC(0-inf) came out at 20700 ng·h/mL in data set [11] (7.5 mg/kg PO NMP) and 81200 ng·h/mL in data set [11] (15 mg/kg PO NMP). Further, the half-life in data set [11] (7.5 mg/kg PO NMP) was 2.8 h; in data set [11] (15 mg/kg PO NMP), 7.9 h.

As for `C[C@H](NC(=O)c1c(N)nn2cccnc12)c1cc2cccc(CC(=O)c3cnn(C)c3)c2c(=O)n1-c1ccccc1` [Compound 91], the half-maximal inhibitory concentration (IC50) in data set [5] lay in the range of 5000 to 10000 nM; in [6], 5000 to 10000 nM; in [7], 5000 to 10000 nM; in data set [8] it was 500 to 1000 nM; in data set [9] (setting [21]), 100 to 500 nM; in data set [10] (setting [22]) it was 100 to 10000 nM. Further, the “PI3K δ/PI3K γ IC50 (selectivity)” value in data set [8] is reported as “W (W = >1 to <10)”. Further, the “RAJIδ/Raw264.7 γ IC50 (selectivity)” value in data set [10] is reported as “W (W = >1 to <10)”.

Consider `CC(C)n1c([C@H](C)Nc2ncnc(N)c2C#N)cc2cccc(-c3ccc(=O)n(C)c3)c2c1=O` [Compound AA, reference compound], for which, in [12], the “inhibition of IFN-γ” value is “highly selective inhibitor of IFN-γ”. In data set [7] (IC50 against PI3K gamma divided by IC50 against PI3K delta), the gamma/delta selectivity ratio entry was “greater than 50”. Further, the IC50 in [9] (read-out: Cellular IC50 δ) was 0.1 nM; in data set [10] (read-out: Cellular IC50 γ) it was 418 nM; in [13], 1900 nM; in data set [14], 102 nM; in [18], < 100 nM. The “neutrophil in bronchoalveolar lavage fluid (BALF)” value in [15] was “reduced neutrophil”. Further, the “Free Plasma Conc” value in data set [16] (p.o. 0.2 mg/kg, 1.5h) is on record as “BLQ”. Besides, the concentration at 1.5 h amounted to 1.8 nM in data set [16] (p.o. 1 mg/kg, 1.5h) and 17.8 nM in data set [16] (p.o. 5 mg/kg, 1.5h). For the same molecule, the concentration at […] in data set [16] (p.o. 1 mg/kg) came out at 1.1 nM; in data set [16] (p.o. 5 mg/kg), 4.6 nM. For the same molecule, the “IC50, CXCL12 induced p-AKT” value in [17] (differentiated and M1 polarized macrophage) is “did not significantly inhibit”; in [17] (differentiated and M2 polarized macrophage) it was “did not significantly inhibit”. Moreover, the “IL-8 induced neutrophil migration” value in data set [19] was “does not inhibit IL-8 induced neutrophil migration”.

With `O=P1(N(CCCl)CCCl)NCCCO1` (centres unmarked) [cyclophosphamide, reference compound], the “tumor growth, LLC tumor brei model” value in [20] is “reduced tumor growth”.
